Measured values published in PubChem BioAssay AID1963835 (Molecular Pharmacology Branch, DTP, NCI, 2024).

Tested on: 699152-130-R-J1-PDC complex spheroid viability
Test: Anticancer human tumor 699152-130-R-J1-PDC patient-derived pancreatic carcinoma cell line growth inhibition [POLQ]
Conditions: for IC50: curve of first compound; for viability, T/C: stronger effect = lower value
How it was run: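 Three-cell-type spheroids modelling solid tumor plus stroma served as the readout system; POL inhibitors were tested individually and in combination, concentration ranges set by clinical Cmax where known.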

[1] = second compound 0.0316 µM, first compound 0.0316 µM
[2] = second compound 0.0316 µM, first compound 0.1 µM
[3] = second compound 0.0316 µM, first compound 0.316 µM
[4] = second compound 0.0316 µM, first compound 1 µM
[5] = second compound 0.0316 µM, first compound 3.16 µM
[6] = second compound 0.0316 µM, first compound 10 µM
[7] = second compound 0.1 µM, first compound 0.0316 µM
[8] = second compound 0.1 µM, first compound 0.1 µM
[9] = second compound 0.1 µM, first compound 0.316 µM
[10] = second compound 0.1 µM, first compound 1 µM
[11] = second compound 0.1 µM, first compound 3.16 µM
[12] = second compound 0.1 µM, first compound 10 µM
[13] = second compound 0.316 µM, first compound 0.0316 µM
[14] = second compound 0.316 µM, first compound 0.1 µM
[15] = second compound 0.316 µM, first compound 0.316 µM
[16] = second compound 0.316 µM, first compound 1 µM
[17] = second compound 0.316 µM, first compound 3.16 µM
[18] = second compound 0.316 µM, first compound 10 µM
[19] = second compound 1 µM, first compound 0.0316 µM
[20] = second compound 1 µM, first compound 0.1 µM
[21] = second compound 1 µM, first compound 0.316 µM
[22] = second compound 1 µM, first compound 1 µM
[23] = second compound 1 µM, first compound 3.16 µM
[24] = second compound 1 µM, first compound 10 µM
[25] = second compound 3.16 µM, first compound 0.0316 µM
[26] = second compound 3.16 µM, first compound 0.1 µM
[27] = second compound 3.16 µM, first compound 0.316 µM
[28] = second compound 3.16 µM, first compound 1 µM
[29] = second compound 3.16 µM, first compound 3.16 µM
[30] = second compound 3.16 µM, first compound 10 µM
[31] = second compound 10 µM, first compound 0.0316 µM
[32] = second compound 10 µM, first compound 0.1 µM
[33] = second compound 10 µM, first compound 0.316 µM
[34] = second compound 10 µM, first compound 1 µM
[35] = second compound 10 µM, first compound 3.16 µM
[36] = second compound 10 µM, first compound 10 µM
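Further: spheroids exposed to agents for 7 days before viability reading.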
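Wherever viability, T/C is given: percent of DMSO vehicle control viability so 100% = vehicle and 0% = no viable signal.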

Work on `CC1COCCN1c1cc(C2(O)CC3CCC(C2)O3)c2cnn(-c3ccn[nH]3)c2n1` (stereo unspecified) + COC1C(OC(N)=O)C(O)C(Oc2ccc3c(O)c(NC(=O)c4ccc(O)c(CC=C(C)C)c4)c(=O)oc3c2C)OC1(C)C yielded an IC50 (second compound 0.0316 µM) of 1360 nM, an IC50 (second compound 0.1 µM) of 811 nM and an IC50 (second compound 0.316 µM) of 1400 nM. The IC50 (second compound 1 µM) was 1170 nM, the IC50 (second compound 3.16 µM) was 939 nM and the IC50 (second compound 10 µM) was 1440 nM. The viability, T/C [1] was 94.4%, the viability, T/C [2] was 80.1% and the viability, T/C [3] was 67.3%. For the same compound, the viability, T/C [4] was 51.5%, the viability, T/C [5] was 43% and the viability, T/C [6] was 34.2%. The viability, T/C [7] was 109%, the viability, T/C [8] was 79.4% and the viability, T/C [9] was 60.9%. For the same compound, the viability, T/C [10] was 46.8%, the viability, T/C [11] was 41.4% and the viability, T/C [12] was 34.2%. It also gave a viability, T/C [13] of 104%, a viability, T/C [14] of 84.8% and a viability, T/C [15] of 61%. The viability, T/C [16] was 52.1%, the viability, T/C [17] was 49% and the viability, T/C [18] was 34.5%. For the same compound, the viability, T/C [19] was 96.6%, the viability, T/C [20] was 80.7% and the viability, T/C [21] was 65.3%. The viability, T/C [22] was 50.2%, the viability, T/C [23] was 43.6% and the viability, T/C [24] was 40.1%. For the same compound, the viability, T/C [25] was 101%, the viability, T/C [26] was 83% and the viability, T/C [27] was 65%. The viability, T/C [28] was 45.8%, the viability, T/C [29] was 45.4% and the viability, T/C [30] was 34.9%. For the same compound, the viability, T/C [31] was 108%, the viability, T/C [32] was 83.4% and the viability, T/C [33] was 62.5%. It also gave a viability, T/C [34] of 55.3%, a viability, T/C [35] of 45.6% and a viability, T/C [36] of 36.3%.

`CNCc1ccc(-c2[nH]c3cc(F)cc4c3c2CCNC4=O)cc1` + Cc1cccc(N(C)C(=O)C2C(O)CCN2c2nc(C)cc(C(F)(F)F)c2C#N)c1 was tested, and the IC50 (second compound 0.0316 µM) was over 10000 nM, the IC50 (second compound 0.1 µM) was over 10000 nM and the IC50 (second compound 0.316 µM) was over 10000 nM. The IC50 (second compound 1 µM) was over 10000 nM, the IC50 (second compound 3.16 µM) was over 10000 nM and the IC50 (second compound 10 µM) was over 10000 nM. It also gave a viability, T/C [1] of 95.5%, a viability, T/C [2] of 88.8% and a viability, T/C [3] of 101%. It also gave a viability, T/C [4] of 95.3%, a viability, T/C [5] of 113% and a viability, T/C [6] of 126%. It also gave a viability, T/C [7] of 88.8%, a viability, T/C [8] of 106% and a viability, T/C [9] of 92.2%. The viability, T/C [10] was 103%, the viability, T/C [11] was 105% and the viability, T/C [12] was 119%. The viability, T/C [13] was 95.5%, the viability, T/C [14] was 94.2% and the viability, T/C [15] was 96.6%. The viability, T/C [16] was 111%, the viability, T/C [17] was 123% and the viability, T/C [18] was 114%. It also gave a viability, T/C [19] of 92.7%, a viability, T/C [20] of 86.9% and a viability, T/C [21] of 88.9%. It also gave a viability, T/C [22] of 94.8%, a viability, T/C [23] of 99.4% and a viability, T/C [24] of 127%. It also gave a viability, T/C [25] of 101%, a viability, T/C [26] of 87.7% and a viability, T/C [27] of 96.6%. The viability, T/C [28] was 98.1%, the viability, T/C [29] was 115% and the viability, T/C [30] was 122%. It also gave a viability, T/C [31] of 99.2%, a viability, T/C [32] of 101% and a viability, T/C [33] of 105%. It also gave a viability, T/C [34] of 97.9%, a viability, T/C [35] of 109% and a viability, T/C [36] of 116%.

`C=CCn1c(=O)c2cnc(Nc3ccc(N4CCN(C)CC4)cc3)nc2n1-c1cccc(C(C)(C)O)n1` + COC1C(OC(N)=O)C(O)C(Oc2ccc3c(O)c(NC(=O)c4ccc(O)c(CC=C(C)C)c4)c(=O)oc3c2C)OC1(C)C gave an IC50 (second compound 0.0316 µM) of over 1000 nM, an IC50 (second compound 0.1 µM) of over 1000 nM and an IC50 (second compound 0.316 µM) of over 1000 nM. The IC50 (second compound 1 µM) was over 1000 nM, the IC50 (second compound 3.16 µM) was over 1000 nM and the IC50 (second compound 10 µM) was over 1000 nM. The viability, T/C (second compound 0.0316 µM, first compound 0.00316 µM) was 90.2%, the viability, T/C (second compound 0.0316 µM, first compound 0.01 µM) was 98.2% and the viability, T/C [1] was 99.4%. The viability, T/C [2] was 90.2%, the viability, T/C [3] was 94.6% and the viability, T/C [4] was 77.4%. For the same compound, the viability, T/C (second compound 0.1 µM, first compound 0.00316 µM) was 102%, the viability, T/C (second compound 0.1 µM, first compound 0.01 µM) was 102% and the viability, T/C [7] was 109%. The viability, T/C [8] was 95%, the viability, T/C [9] was 98.7% and the viability, T/C [10] was 75%. The viability, T/C (second compound 0.316 µM, first compound 0.00316 µM) was 97.7%, the viability, T/C (second compound 0.316 µM, first compound 0.01 µM) was 95.1% and the viability, T/C [13] was 94.8%. The viability, T/C [14] was 104%, the viability, T/C [15] was 104% and the viability, T/C [16] was 70.7%. For the same compound, the viability, T/C (second compound 1 µM, first compound 0.00316 µM) was 108%, the viability, T/C (second compound 1 µM, first compound 0.01 µM) was 93.9% and the viability, T/C [19] was 92.1%. For the same compound, the viability, T/C [20] was 99.5%, the viability, T/C [21] was 90% and the viability, T/C [22] was 74%. It also gave a viability, T/C (second compound 3.16 µM, first compound 0.00316 µM) of 107%, a viability, T/C (second compound 3.16 µM, first compound 0.01 µM) of 92.9% and a viability, T/C [25] of 105%. It also gave a viability, T/C [26] of 96.6%, a viability, T/C [27] of 96.4% and a viability, T/C [28] of 76.5%. For the same compound, the viability, T/C (second compound 10 µM, first compound 0.00316 µM) was 99.1%, the viability, T/C (second compound 10 µM, first compound 0.01 µM) was 101% and the viability, T/C [31] was 96.3%. For the same compound, the viability, T/C [32] was 98.7%, the viability, T/C [33] was 95% and the viability, T/C [34] was 68%.
